ChEMBL document CHEMBL3102801, “Synthesis and antiproliferative activity of new derivatives containing the polycyclic system 5,7:7,13-dimethanopyrazolo[3,4-b]pyrazolo[3',4':2,3]azepino[4,5-f]azocine” (Eur J Med Chem, 2014)

Columns and labels:
Assay type in all cases: functional
Malme-3M = test: Growth inhibition of human MALME-3M cells after 48 hrs by sulforhodamine B assay
MDA-MB-468 = test: Growth inhibition of human MDA-MB-468 cells after 48 hrs by sulforhodamine B assay; conditions: MDA-MB-468, 48 h
NCI-H460 = test: Growth inhibition of human NCI-H460 cells after 48 hrs by sulforhodamine B assay; conditions: NCI-H460, 48 h
[1] = Growth inhibition of human Hs 578T cells after 48 hrs by sulforhodamine B assay
MDA-MB-231 [2] = test: Cell cycle arrest in human MDA-MB-231 cells assessed as accumulation of sub-G0-G1 phase at 5 uM after 48 hrs using propidium iodide staining by flow cytometric analysis (reference value: 8.4%)
MDA-MB-231 [3] = test: Cell cycle arrest in human MDA-MB-231 cells assessed as accumulation of G0-G1 phase at 5 uM after 48 hrs using propidium iodide staining by flow cytometric analysis (reference value: 42.2%)
[4] = Growth inhibition of human OVCAR5 cells after 48 hrs by sulforhodamine B assay; conditions: OVCAR-5, 48 h
LOX IMVI = test: Growth inhibition of human LOXIMVI cells after 48 hrs by sulforhodamine B assay
A498 = test: Growth inhibition of human A498 cells after 48 hrs by sulforhodamine B assay; conditions: A498, 48 h
SNB-19 = test: Growth inhibition of human SNB19 cells after 48 hrs by sulforhodamine B assay; conditions: SNB-19, 48 h

SMILES: C=C1c2c(C)nn(-c3ccc(OC)cc3)c2N(C)C23CC1C1(C)c4c(C)nn(-c5ccc(OC)cc5)c4N(C)C(C)(CC12)C3 (stereo not given)
- GI50 (Malme-3M): 3240 nM
- GI50 (MDA-MB-468): 2500 nM
- GI50 (NCI-H460): 2490 nM
- GI50 [1]: 6240 nM
- Activity (MDA-MB-231 [2]): 11.5%
- Activity (MDA-MB-231 [3]): 53.5%
- GI50 [4]: 11300 nM
- GI50 (LOX IMVI): 2240 nM
- GI50 (A498): 2470 nM
- GI50 (SNB-19): 4340 nM
